Results published in PMC11999280, “Design and screening of novel endosomal escape compounds that enhance functional delivery of oligonucleotides in vitro” (Molecular Therapy. Nucleic Acids, 2025).

Assays:
Type in all cases: cell-based
[1] = tested on: mCherry-GAL9 expressing HEK293 cells; test: GAL9 recruitment assay, HEK293; details: calculated mean from >3 independent exp.
In short: (§1)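 Using cell lines stably carrying mCherry-GAL9, dose-response treatment begins 24 h after seeding; fixed (4% paraformaldehyde) and Hoechst-stained cells are imaged by confocal microscopy and GAL9 structures counted. Each treatment runs in duplicate wells over three experiments.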

[2] = tested on: mCherry-GAL9 expressing U2OS cells; test: GAL9 recruitment assay, U2OS; details: calculated mean from >3 independent exp.
In short: as §1

[3] = tested on: mCherry-GAL9 expressing NCI-H358 cells; test: GAL9 recruitment assay, NCI-H358; details: calculated mean from >3 independent exp.
In short: as §1

[4] = tested on: mCherry-GAL9 expressing 16HBE cells; test: GAL9 recruitment assay, 16HBE; details: calculated mean from >3 independent exp.
In short: as §1

[5] = tested on: mCherry-GAL9 expressing SHSY5Y cells; test: GAL9 recruitment assay, SHSY5Y; details: calculated mean from >3 independent exp.
In short: as §1

[6] = tested on: mCherry-GAL9 expressing HuH7 cells; test: GAL9 recruitment assay, HuH7; details: calculated mean from >3 independent exp.
In short: as §1

[7] = tested on: mCherry-GAL9 expressing HepG2 cells; test: GAL9 recruitment assay, HepG2; details: calculated mean from >3 independent exp.
In short: as §1

[8] = tested on: mCherry-GAL9 expressing HeLa cells; test: GAL9 recruitment assay, HeLa; details: calculated mean from >3 independent exp.
In short: as §1

[9] = tested on: HeLa_Luc705 cells (pLuc/705 splice-switching reporter); test: Functional 705-SSO delivery, luciferase splice-switching assay; details: HeLa-Luc705 + 2 µM SSO, mean from >3 independent experiments
In short: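 Splice correction was measured as firefly luciferase luminescence in Triton X-100 lysates taken 24 h after enhancer treatment. Before treatment, the 10,000 cells/well had spent 24 h with 1–2 μM 705-SSO (2′-OMe, phosphorothioate). For comparison, 100–200 nM SSO was lipofected with LF2000.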

In the case of `COc1nn(C2CCNCC2)cc1Nc1ncc(F)c(-c2c[nH]c3ccccc23)n1` [EEE23], the “Gal9 response compared to reference” value ([1]; EEE 0.31 µM) is reported as 0.019, the “Gal9 response compared to reference” value ([1]; EEE 0.62 µM) is reported as 0.015 and the “Gal9 response compared to reference” value ([1]; EEE 1.25 µM) is reported as 0.015. For the same molecule, the “Gal9 response compared to reference” value ([1]; EEE 2.5 µM) was 0.016, the “Gal9 response compared to reference” value ([1]; EEE 5 µM) was 0.025 and the “Gal9 response compared to reference” value ([1]; EEE 10 µM) was 0.042. The “Gal9 response compared to reference” value ([2]; EEE 0.31 µM) was 0.011, the “Gal9 response compared to reference” value ([2]; EEE 0.62 µM) was 0.012 and the “Gal9 response compared to reference” value ([2]; EEE 1.25 µM) was 0.015. The “Gal9 response compared to reference” value ([2]; EEE 2.5 µM) was 0.015, the “Gal9 response compared to reference” value ([2]; EEE 5 µM) was 0.012 and the “Gal9 response compared to reference” value ([2]; EEE 10 µM) was 0.017. The “Gal9 response compared to reference” value ([3]; EEE 0.31 µM) was 0.013, the “Gal9 response compared to reference” value ([3]; EEE 0.62 µM) was 0.015 and the “Gal9 response compared to reference” value ([3]; EEE 1.25 µM) was 0.012. For the same molecule, the “Gal9 response compared to reference” value ([3]; EEE 2.5 µM) was 0.017, the “Gal9 response compared to reference” value ([3]; EEE 5 µM) was 0.017 and the “Gal9 response compared to reference” value ([3]; EEE 10 µM) was 0.021. The “Gal9 response compared to reference” value ([4]; EEE 0.31 µM) was 0.008, the “Gal9 response compared to reference” value ([4]; EEE 0.62 µM) was 0.010 and the “Gal9 response compared to reference” value ([4]; EEE 1.25 µM) was 0.010. For the same molecule, the “Gal9 response compared to reference” value ([4]; EEE 2.5 µM) was 0.012, the “Gal9 response compared to reference” value ([4]; EEE 5 µM) was 0.017 and the “Gal9 response compared to reference” value ([4]; EEE 10 µM) was 0.032. The “Gal9 response compared to reference” value ([5]; EEE 0.31 µM) was 0.013, the “Gal9 response compared to reference” value ([5]; EEE 0.62 µM) was 0.015 and the “Gal9 response compared to reference” value ([5]; EEE 1.25 µM) was 0.013. The “Gal9 response compared to reference” value ([5]; EEE 2.5 µM) was 0.013, the “Gal9 response compared to reference” value ([5]; EEE 5 µM) was 0.017 and the “Gal9 response compared to reference” value ([5]; EEE 10 µM) was 0.087. The “Gal9 response compared to reference” value ([6]; EEE 0.31 µM) was 0.007, the “Gal9 response compared to reference” value ([6]; EEE 0.62 µM) was 0.008 and the “Gal9 response compared to reference” value ([6]; EEE 1.25 µM) was 0.009. The “Gal9 response compared to reference” value ([6]; EEE 2.5 µM) was 0.009, the “Gal9 response compared to reference” value ([6]; EEE 5 µM) was 0.010 and the “Gal9 response compared to reference” value ([6]; EEE 10 µM) was 0.011. The “Gal9 response compared to reference” value ([7]; EEE 0.31 µM) was 0.006, the “Gal9 response compared to reference” value ([7]; EEE 0.62 µM) was 0.006 and the “Gal9 response compared to reference” value ([7]; EEE 1.25 µM) was 0.007. The “Gal9 response compared to reference” value ([7]; EEE 2.5 µM) was 0.005, the “Gal9 response compared to reference” value ([7]; EEE 5 µM) was 0.004 and the “Gal9 response compared to reference” value ([7]; EEE 10 µM) was 0.005. The “Gal9 response compared to reference” value ([8]; EEE 0.31 µM) was 0.004, the “Gal9 response compared to reference” value ([8]; EEE 0.62 µM) was 0.005 and the “Gal9 response compared to reference” value ([8]; EEE 1.25 µM) was 0.004. The “Gal9 response compared to reference” value ([8]; EEE 2.5 µM) was 0.005, the “Gal9 response compared to reference” value ([8]; EEE 5 µM) was 0.005 and the “Gal9 response compared to reference” value ([8]; EEE 10 µM) was 0.008. For the same molecule, the “Luciferase expression compared to reference” value ([9]; EEE 5 µM) was 65.259, the “Luciferase expression compared to reference” value ([9]; EEE 1-1.25 µM) was 0.775 and the “Luciferase expression compared to reference” value ([9]; EEE 2.5 - 3 µM) was 1.207.
`COc1nn(C2CCN(C)CC2)cc1Nc1ncc(C(F)(F)F)c(-n2ccc3c(C#N)cccc32)n1` [EEE16] was tested, and the “Gal9 response compared to reference” value ([1]; EEE 0.31 µM) was 0.023, the “Gal9 response compared to reference” value ([1]; EEE 0.62 µM) was 0.020 and the “Gal9 response compared to reference” value ([1]; EEE 1.25 µM) was 0.019. For the same molecule, the “Gal9 response compared to reference” value ([1]; EEE 2.5 µM) was 0.022, the “Gal9 response compared to reference” value ([1]; EEE 5 µM) was 0.024 and the “Gal9 response compared to reference” value ([1]; EEE 10 µM) was 0.121. For the same molecule, the “Gal9 response compared to reference” value ([2]; EEE 0.31 µM) was 0.010, the “Gal9 response compared to reference” value ([2]; EEE 0.62 µM) was 0.011 and the “Gal9 response compared to reference” value ([2]; EEE 1.25 µM) was 0.010. The “Gal9 response compared to reference” value ([2]; EEE 2.5 µM) was 0.010, the “Gal9 response compared to reference” value ([2]; EEE 5 µM) was 0.010 and the “Gal9 response compared to reference” value ([2]; EEE 10 µM) was 0.024. The “Gal9 response compared to reference” value ([3]; EEE 0.31 µM) was 0.014, the “Gal9 response compared to reference” value ([3]; EEE 0.62 µM) was 0.017 and the “Gal9 response compared to reference” value ([3]; EEE 1.25 µM) was 0.014. The “Gal9 response compared to reference” value ([3]; EEE 2.5 µM) was 0.018, the “Gal9 response compared to reference” value ([3]; EEE 5 µM) was 0.014 and the “Gal9 response compared to reference” value ([3]; EEE 10 µM) was 0.019. The “Gal9 response compared to reference” value ([4]; EEE 0.31 µM) was 0.008, the “Gal9 response compared to reference” value ([4]; EEE 0.62 µM) was 0.009 and the “Gal9 response compared to reference” value ([4]; EEE 1.25 µM) was 0.008. For the same molecule, the “Gal9 response compared to reference” value ([4]; EEE 2.5 µM) was 0.007, the “Gal9 response compared to reference” value ([4]; EEE 5 µM) was 0.011 and the “Gal9 response compared to reference” value ([4]; EEE 10 µM) was 0.129. The “Gal9 response compared to reference” value ([5]; EEE 0.31 µM) was 0.014, the “Gal9 response compared to reference” value ([5]; EEE 0.62 µM) was 0.014 and the “Gal9 response compared to reference” value ([5]; EEE 1.25 µM) was 0.012. The “Gal9 response compared to reference” value ([5]; EEE 2.5 µM) was 0.012, the “Gal9 response compared to reference” value ([5]; EEE 5 µM) was 0.012 and the “Gal9 response compared to reference” value ([5]; EEE 10 µM) was 0.042. The “Gal9 response compared to reference” value ([6]; EEE 0.31 µM) was 0.009, the “Gal9 response compared to reference” value ([6]; EEE 0.62 µM) was 0.007 and the “Gal9 response compared to reference” value ([6]; EEE 1.25 µM) was 0.008. The “Gal9 response compared to reference” value ([6]; EEE 2.5 µM) was 0.012, the “Gal9 response compared to reference” value ([6]; EEE 5 µM) was 0.008 and the “Gal9 response compared to reference” value ([6]; EEE 10 µM) was 0.022. The “Gal9 response compared to reference” value ([7]; EEE 0.31 µM) was 0.010, the “Gal9 response compared to reference” value ([7]; EEE 0.62 µM) was 0.007 and the “Gal9 response compared to reference” value ([7]; EEE 1.25 µM) was 0.008. The “Gal9 response compared to reference” value ([7]; EEE 2.5 µM) was 0.008, the “Gal9 response compared to reference” value ([7]; EEE 5 µM) was 0.009 and the “Gal9 response compared to reference” value ([7]; EEE 10 µM) was 0.010. For the same molecule, the “Gal9 response compared to reference” value ([8]; EEE 0.31 µM) was 0.004, the “Gal9 response compared to reference” value ([8]; EEE 0.62 µM) was 0.004 and the “Gal9 response compared to reference” value ([8]; EEE 1.25 µM) was 0.003. The “Gal9 response compared to reference” value ([8]; EEE 2.5 µM) was 0.004, the “Gal9 response compared to reference” value ([8]; EEE 5 µM) was 0.004 and the “Gal9 response compared to reference” value ([8]; EEE 10 µM) was 0.005. The “Luciferase expression compared to reference” value ([9]; EEE 2.5 - 3 µM) was 0.810.
